In ChEMBL document CHEMBL1201862, “PubChem BioAssay data set” (2004):
Active and inactive are the calls of the source.

Assays:
[1] = target: T1, Tyrosine-protein phosphatase non-receptor type 7 (Homo sapiens, UniProt P35236); test: redox-dependent HePTP inhibition, mechanism study, biochemical, fluorescence (AID 2068); assay type: functional
T1 sequence (P35236 whole entry): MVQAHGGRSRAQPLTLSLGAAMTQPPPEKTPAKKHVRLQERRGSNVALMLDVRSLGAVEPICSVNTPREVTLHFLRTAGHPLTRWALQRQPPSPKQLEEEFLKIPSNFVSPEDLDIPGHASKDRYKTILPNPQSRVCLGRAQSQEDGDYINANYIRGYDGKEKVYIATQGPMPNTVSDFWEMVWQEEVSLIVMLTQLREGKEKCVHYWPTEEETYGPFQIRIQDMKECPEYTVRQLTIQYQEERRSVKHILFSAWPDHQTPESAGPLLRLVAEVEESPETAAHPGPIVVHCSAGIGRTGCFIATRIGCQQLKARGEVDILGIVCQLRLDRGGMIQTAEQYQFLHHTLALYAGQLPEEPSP

Hexokinase = Hexokinase (Trypanosoma brucei, UniProt Q38C41); test: Confirmation assay for inhibitors of Trypanosoma brucei hexokinase 1-Analogue-first series. [Related pubchem assays (depositor defined):AID1430, AID1632, AID2516, AID2560, AID2579, AID2600, AID449725, AID492951]; assay type: functional
Chain of Hexokinase (Q38C41 whole entry): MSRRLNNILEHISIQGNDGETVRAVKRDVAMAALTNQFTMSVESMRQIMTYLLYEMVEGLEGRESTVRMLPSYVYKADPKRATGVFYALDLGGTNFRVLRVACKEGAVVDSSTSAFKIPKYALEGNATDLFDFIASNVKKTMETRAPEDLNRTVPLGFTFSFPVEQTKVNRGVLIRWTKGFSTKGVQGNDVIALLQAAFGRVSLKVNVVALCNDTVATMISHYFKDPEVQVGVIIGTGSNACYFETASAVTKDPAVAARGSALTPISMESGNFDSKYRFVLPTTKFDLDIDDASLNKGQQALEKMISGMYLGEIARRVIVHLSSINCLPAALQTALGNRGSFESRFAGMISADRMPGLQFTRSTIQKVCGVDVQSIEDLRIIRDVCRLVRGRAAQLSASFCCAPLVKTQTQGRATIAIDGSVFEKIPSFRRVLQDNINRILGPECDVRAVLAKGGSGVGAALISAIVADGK

[2] = target: T2, Corticotropin-releasing factor receptor 2/Corticotropin-releasing factor-binding protein (Homo sapiens, UniProt P24387+Q13324); test: Dose Response confirmation of uHTS hits for small molecule antagonists of the CRF-binding protein and CRF-R2 receptor complex.; assay type: functional; conditions: read-out: IC50_Mean
T2 sequence (Q13324 whole entry): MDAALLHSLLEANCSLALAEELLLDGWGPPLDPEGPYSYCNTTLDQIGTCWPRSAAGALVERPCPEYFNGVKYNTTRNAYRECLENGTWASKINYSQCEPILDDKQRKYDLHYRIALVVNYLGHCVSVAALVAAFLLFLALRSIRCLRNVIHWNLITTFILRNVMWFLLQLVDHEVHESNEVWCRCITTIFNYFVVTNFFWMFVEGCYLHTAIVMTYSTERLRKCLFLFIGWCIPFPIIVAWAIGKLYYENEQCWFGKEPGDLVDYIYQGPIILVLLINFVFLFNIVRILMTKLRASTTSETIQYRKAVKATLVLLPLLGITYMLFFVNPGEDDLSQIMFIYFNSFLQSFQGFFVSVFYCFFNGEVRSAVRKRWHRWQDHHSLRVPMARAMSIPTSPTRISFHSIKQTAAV
T2 sequence (P24387 whole entry): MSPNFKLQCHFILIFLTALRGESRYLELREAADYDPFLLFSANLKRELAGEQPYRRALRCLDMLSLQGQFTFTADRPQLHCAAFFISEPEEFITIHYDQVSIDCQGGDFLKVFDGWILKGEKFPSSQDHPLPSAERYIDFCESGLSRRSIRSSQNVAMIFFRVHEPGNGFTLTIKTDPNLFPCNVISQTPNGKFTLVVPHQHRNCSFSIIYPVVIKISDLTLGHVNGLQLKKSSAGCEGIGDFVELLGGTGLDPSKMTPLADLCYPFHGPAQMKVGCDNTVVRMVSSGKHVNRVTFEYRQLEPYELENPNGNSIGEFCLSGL

[3] = target: T2, Corticotropin-releasing factor receptor 2/Corticotropin-releasing factor-binding protein; test: activators of CRF receptor 2 with binding protein – uHTS hits, confirmation (AID 602473); assay type: functional; conditions: read-out: EC50_Mean
Streptococcus = test: Group A Streptococcus viability loss, dose response, counter-screen for streptokinase expression inhibitor project, luminescence, BacTiterGlo (AID 1915); assay type: functional, organism-based;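 further: potency for reduction of bacterial viability or growth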
Streptokinase A = target: T3, Streptokinase A (Streptococcus pyogenes serotype M1, UniProt P10520); test: S. pyogenes streptokinase expression inhibitors, potency, dose response, plasminogen activation absorbance, OD405 (AID 1914); assay type: functional, Streptococcus pyogenes M1 GAS;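 further: secreted streptokinase activity via plasminogen activation per viability signal from cell pellet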
T3 sequence (P10520 whole entry): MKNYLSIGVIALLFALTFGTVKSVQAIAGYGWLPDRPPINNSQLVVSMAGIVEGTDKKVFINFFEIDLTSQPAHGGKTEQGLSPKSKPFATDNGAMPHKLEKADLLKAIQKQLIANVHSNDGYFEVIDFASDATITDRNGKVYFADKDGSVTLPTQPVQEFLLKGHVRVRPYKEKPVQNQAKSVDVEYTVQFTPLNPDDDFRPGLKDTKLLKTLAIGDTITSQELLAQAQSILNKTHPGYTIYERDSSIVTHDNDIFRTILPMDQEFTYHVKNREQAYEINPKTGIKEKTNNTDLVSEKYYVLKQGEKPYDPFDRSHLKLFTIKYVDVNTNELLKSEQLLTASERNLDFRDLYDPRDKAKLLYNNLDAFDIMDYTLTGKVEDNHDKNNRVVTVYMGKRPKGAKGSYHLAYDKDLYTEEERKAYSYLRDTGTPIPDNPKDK

[4] = target: Heat shock protein HSP 90-alpha (Homo sapiens, UniProt P07900); assay type: functional, organism-based
[5] = target: T4, Calpain-2 catalytic subunit (Sus scrofa, UniProt P43367); test: pig calpain II inhibitor potency, dose response, biochemical, fluorogenic peptide substrate (AID 1420); assay type: functional
T4 sequence (P43367 whole entry): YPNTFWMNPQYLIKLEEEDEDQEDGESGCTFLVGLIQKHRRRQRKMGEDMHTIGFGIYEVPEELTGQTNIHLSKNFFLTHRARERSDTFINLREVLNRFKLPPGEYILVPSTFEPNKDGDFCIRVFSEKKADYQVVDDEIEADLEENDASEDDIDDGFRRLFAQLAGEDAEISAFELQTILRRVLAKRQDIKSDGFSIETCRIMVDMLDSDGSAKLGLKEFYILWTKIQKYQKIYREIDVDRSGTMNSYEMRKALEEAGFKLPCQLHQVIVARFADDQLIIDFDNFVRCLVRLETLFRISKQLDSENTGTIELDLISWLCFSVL

[6] = tested on: Streptococcus sp. 'group A'; test: growth inhibition of control SK(-) GAS strain, dose response, counter-screen for streptokinase expression inhibitor project, luminescence, kanamycin, BacTiterGlo, confirmation (AID 1900); assay type: functional, organism-based
[7] = target: G-protein coupled receptor 55 (Homo sapiens, UniProt Q9Y2T6); test: GPR55 agonists via beta-arrestin recruitment, primary screen, imaging, U2OS cells, beta-arrestin-GFP redistribution (AID 1961); assay type: functional
Chain of G-protein coupled receptor 55 (Q9Y2T6 whole entry, the tested form may be a part): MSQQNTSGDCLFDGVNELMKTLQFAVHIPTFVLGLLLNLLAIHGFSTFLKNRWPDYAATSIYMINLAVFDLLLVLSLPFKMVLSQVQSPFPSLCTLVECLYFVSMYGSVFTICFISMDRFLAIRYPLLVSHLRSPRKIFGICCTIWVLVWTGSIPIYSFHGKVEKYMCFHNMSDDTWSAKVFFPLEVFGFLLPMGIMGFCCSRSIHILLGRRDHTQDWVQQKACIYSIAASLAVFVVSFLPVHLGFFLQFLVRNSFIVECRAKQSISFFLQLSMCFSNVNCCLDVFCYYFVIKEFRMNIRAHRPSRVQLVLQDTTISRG

[8] = target: Disintegrin and metalloproteinase domain-containing protein 17 (Homo sapiens, UniProt P78536); test: exosite inhibitors of ADAM17, dose response, biochemical (AID 743260)
Chain of Disintegrin and metalloproteinase domain-containing protein 17 (P78536 whole entry, the tested form may be a part): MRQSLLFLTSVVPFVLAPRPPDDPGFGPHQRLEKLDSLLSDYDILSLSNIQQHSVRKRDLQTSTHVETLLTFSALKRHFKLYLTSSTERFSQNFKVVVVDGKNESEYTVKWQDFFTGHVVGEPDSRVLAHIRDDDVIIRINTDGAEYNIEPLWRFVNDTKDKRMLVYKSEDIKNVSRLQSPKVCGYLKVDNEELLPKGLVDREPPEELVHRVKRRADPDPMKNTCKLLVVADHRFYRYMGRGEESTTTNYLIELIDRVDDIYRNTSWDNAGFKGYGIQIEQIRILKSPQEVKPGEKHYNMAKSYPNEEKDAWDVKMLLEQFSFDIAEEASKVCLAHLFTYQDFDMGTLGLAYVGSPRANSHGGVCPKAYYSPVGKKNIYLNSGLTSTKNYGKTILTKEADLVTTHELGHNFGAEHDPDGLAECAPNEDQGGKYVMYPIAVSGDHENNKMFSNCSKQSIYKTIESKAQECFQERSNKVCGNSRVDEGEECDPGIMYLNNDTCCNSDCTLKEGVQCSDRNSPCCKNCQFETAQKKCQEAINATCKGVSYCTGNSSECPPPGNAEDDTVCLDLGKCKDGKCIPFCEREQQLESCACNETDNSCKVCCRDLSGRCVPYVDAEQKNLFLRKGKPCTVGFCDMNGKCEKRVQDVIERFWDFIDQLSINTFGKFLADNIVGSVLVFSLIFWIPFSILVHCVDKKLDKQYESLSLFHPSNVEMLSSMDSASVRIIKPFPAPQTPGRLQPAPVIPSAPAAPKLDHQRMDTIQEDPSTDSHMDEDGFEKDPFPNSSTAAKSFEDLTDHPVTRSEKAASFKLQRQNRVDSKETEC

[9] = cytotoxicity in HPDE-C7 cells, cell-based, fluorescence, HTS (AID 430); assay type: functional; conditions: Homo sapiens
[10] = cytotoxicity in KRAS-transformed pancreatic duct cells, primary screen, cell-based, fluorescence, HTS (AID 431); assay type: functional; conditions: Homo sapiens;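 further: cell line used: HPDE-C7K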

## CCN(CC)C(=O)C1CCCN(C(=O)Nc2ccc3nc(-c4ccco4)c(-c4ccco4)nc3c2)C1 (stereo not given)
[1]
  IC50: 2.66 µM (active)

## COc1ccc(C(=O)NCC(=O)O)cc1
Hexokinase
  IC50: > 25 µM (inactive)

## CCCOC(=O)c1ccc(Oc2c[nH]nc2-c2ccc(OCC)cc2O)cc1
[2]
  IC50: > 47.1 µM (inactive)
[3]
  EC50: > 53 µM (inactive)
Streptococcus
  EC50: 33.8 µM (active)
Streptokinase A
  EC50: > 150 µM (not active)
[4]
  AC50: 7.92 µM (active)
[5]
  IC50: 19.6 µM (not active)
[6]
  EC50: 8.69 µM (active)
[7]
  EC50: > 32 µM (inactive)
[8]
  IC50: > 69.5 µM (inactive)
[9]
  EC50: 6.6 µM (active)
[10]
  EC50: 6.96 µM (active)

## CCCN(CCC)Cc1c(C(=O)N/N=C/c2c[nH]c3ccccc23)nnn1-c1nonc1N
[7]
  EC50: 0.905 µM (active)

## O=c1c2cc(Br)ccc2sn1-c1ccccc1
Hexokinase
  IC50: > 25 µM (inactive)
